Assay results taken from ChEMBL document CHEMBL1125066, “Phosphoramidate peptide inhibitors of human skin fibroblast collagenase” (J Med Chem, 1990).
pKi: −log10 of the molar value. Square brackets hold non-standard residues; d marks the D form. Peptide text beside a SMILES is read from it. * marks the point of attachment. Arg(NO2) = N=C(NCCC[C@H](N)C(=O)O)N[N+](=O)[O-]; X1 = CCOP(=O)(O)N[C@H](C(=O)*)[C@@H](C)CC

Legend:
Interstitial collagenase [1] = molecular target: T1, Interstitial collagenase (Homo sapiens, UniProt P03956); experiment: Assayed against human skin fibroblast Collagenase using the spectrophotometric assay with the thiol ester substrate at pH 6.5.
T1 sequence (P03956 whole entry): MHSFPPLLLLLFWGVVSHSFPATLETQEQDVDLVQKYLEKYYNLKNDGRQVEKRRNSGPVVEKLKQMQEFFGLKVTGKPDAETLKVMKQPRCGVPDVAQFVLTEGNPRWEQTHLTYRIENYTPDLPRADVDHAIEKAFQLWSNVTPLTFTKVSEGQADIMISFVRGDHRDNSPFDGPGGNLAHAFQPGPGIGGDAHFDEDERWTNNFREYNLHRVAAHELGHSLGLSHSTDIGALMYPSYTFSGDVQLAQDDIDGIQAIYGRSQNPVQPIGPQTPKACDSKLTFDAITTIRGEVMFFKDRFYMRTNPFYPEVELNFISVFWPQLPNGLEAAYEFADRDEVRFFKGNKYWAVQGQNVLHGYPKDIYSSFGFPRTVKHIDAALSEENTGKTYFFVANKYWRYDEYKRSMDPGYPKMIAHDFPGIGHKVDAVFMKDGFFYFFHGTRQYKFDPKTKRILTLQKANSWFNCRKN

Collagenase ColA = molecular target: T2, Collagenase ColA (Bacteria, UniProt P43153); experiment: Inhibition of bacterial Collagenase; parameters: species or system Hathewaya histolytica
T2 sequence (P43153 whole entry): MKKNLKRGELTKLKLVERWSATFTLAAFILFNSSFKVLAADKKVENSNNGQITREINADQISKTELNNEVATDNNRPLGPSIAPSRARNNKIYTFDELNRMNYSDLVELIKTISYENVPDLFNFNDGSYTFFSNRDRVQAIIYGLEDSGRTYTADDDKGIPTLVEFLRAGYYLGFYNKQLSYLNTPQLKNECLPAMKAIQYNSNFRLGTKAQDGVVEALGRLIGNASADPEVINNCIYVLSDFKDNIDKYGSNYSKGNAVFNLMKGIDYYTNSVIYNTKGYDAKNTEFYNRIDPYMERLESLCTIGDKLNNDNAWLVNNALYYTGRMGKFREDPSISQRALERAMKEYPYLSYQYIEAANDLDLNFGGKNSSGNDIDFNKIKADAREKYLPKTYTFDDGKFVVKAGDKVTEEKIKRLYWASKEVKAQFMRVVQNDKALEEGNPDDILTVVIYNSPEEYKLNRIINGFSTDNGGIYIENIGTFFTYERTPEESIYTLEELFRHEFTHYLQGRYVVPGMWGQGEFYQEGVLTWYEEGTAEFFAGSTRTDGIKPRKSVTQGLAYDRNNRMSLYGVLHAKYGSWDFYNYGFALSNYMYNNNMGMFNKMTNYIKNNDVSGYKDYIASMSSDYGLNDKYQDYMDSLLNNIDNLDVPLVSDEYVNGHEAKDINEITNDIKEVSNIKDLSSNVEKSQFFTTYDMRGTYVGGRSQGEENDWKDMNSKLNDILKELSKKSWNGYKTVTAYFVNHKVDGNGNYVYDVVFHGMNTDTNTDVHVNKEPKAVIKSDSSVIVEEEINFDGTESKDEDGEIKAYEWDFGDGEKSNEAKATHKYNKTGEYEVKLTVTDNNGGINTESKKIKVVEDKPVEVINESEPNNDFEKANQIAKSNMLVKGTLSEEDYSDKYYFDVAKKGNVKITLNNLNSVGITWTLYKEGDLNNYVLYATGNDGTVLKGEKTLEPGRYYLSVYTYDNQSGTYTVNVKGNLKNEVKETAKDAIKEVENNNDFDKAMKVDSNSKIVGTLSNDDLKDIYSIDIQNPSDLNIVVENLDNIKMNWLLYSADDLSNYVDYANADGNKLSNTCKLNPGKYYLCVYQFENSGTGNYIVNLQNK

[2] = molecular target: T3, Angiotensin-converting enzyme (Oryctolagus cuniculus, UniProt P12822); experiment: Inhibitory activity against Angiotensin I converting enzyme
T3 sequence (P12822 whole entry): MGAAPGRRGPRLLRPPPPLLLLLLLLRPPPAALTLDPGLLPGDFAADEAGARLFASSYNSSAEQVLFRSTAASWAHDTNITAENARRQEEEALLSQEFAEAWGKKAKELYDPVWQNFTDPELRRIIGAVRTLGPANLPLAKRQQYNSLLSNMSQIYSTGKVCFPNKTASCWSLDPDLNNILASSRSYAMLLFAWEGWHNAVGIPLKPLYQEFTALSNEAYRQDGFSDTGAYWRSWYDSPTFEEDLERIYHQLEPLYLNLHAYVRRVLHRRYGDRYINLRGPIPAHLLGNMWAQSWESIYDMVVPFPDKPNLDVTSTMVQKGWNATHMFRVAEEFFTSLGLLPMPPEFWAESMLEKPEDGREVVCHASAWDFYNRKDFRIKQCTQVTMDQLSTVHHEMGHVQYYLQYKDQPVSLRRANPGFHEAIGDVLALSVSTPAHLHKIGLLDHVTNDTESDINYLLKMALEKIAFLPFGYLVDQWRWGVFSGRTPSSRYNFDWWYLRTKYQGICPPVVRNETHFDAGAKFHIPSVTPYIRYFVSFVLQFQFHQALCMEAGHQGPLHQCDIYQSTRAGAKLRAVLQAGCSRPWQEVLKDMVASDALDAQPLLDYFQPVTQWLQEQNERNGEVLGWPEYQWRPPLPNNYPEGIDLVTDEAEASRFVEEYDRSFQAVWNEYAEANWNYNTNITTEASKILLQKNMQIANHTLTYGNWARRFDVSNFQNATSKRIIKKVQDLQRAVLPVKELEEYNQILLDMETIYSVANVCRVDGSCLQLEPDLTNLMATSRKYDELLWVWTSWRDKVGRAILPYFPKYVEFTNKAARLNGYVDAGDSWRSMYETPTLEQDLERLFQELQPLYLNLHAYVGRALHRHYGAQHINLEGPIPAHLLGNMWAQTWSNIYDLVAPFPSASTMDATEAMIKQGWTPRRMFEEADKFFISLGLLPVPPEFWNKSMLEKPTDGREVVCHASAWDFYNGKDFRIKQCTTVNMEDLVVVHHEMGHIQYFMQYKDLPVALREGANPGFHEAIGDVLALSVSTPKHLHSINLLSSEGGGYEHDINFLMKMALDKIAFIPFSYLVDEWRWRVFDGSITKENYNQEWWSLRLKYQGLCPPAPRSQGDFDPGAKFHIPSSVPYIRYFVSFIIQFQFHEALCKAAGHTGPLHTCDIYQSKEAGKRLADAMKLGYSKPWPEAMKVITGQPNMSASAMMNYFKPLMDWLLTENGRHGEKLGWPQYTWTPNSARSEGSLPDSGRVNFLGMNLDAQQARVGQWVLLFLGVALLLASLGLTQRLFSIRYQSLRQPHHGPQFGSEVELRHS

Interstitial collagenase [3] = molecular target: T1, Interstitial collagenase; experiment: Inhibition of human skin fibroblast Collagenase at pH 7.5

SMILES	pKi (Interstitial collagenase [1])	further results
CCOP(=O)(O)N[C@H](C(=O)N[C@@H](Cc1ccccc1)C(=O)NCC(=O)O)[C@@H](C)CC	4.54	–
CCOP(=O)(O)N[C@H](C(=O)N[C@@H](C)C(=O)NCC(=O)N[C@@H](CCC(=O)O)C(=O)N[C@@H](CCCN=C(N)N)C(=O)NCC(=O)O)[C@@H](C)CC (X1-AGERG-OH)	3.39	–
CCOP(=O)(O)N[C@H](C(=O)N[C@@H](C)C(=O)NCC(=O)N[C@@H](CCC(N)=O)C(=O)N[C@@H](CCCNC(=N)N[N+](=O)[O-])C(=O)O)[C@@H](C)CC (X1-AGQ[Arg(NO2)]-OH)	2.72	–
CCOP(=O)(O)N[C@H](C(=O)N[C@@H](Cc1ccc(OCc2ccccc2)cc1)C(=O)N[C@@H](Cc1ccccc1)C(=O)O)[C@@H](C)CC	3.92	–
CCOP(=O)(O)N[C@H](C(=O)NC(Cc1ccc(OCc2ccccc2)cc1)C(=O)NCC(=O)O)[C@@H](C)CC (some centres undefined)	5.17	pKi (Collagenase ColA): < 5.30; pKi [2]: 6.70
CCOP(=O)(O)N[C@H](C(=O)NC(Cc1ccc(OC2CCCCO2)cc1)C(=O)NCC(=O)O)[C@@H](C)CC (some centres undefined)	4.60	–
CCOP(=O)(O)N[C@H](C(=O)N[C@@H](Cc1ccc(O)cc1)C(=O)NCC(=O)O)[C@@H](C)CC	4.66	–
CCOP(=O)(O)N[C@H](C(=O)N[C@@H](C)C(=O)NCC(=O)N[C@@H](CCC(=O)O)C(=O)N[C@@H](CCCNC(=N)N[N+](=O)[O-])C(=O)NCC(=O)O)[C@@H](C)CC (X1-AGE[Arg(NO2)]G-OH)	3.57	–
CCOP(=O)(O)N[C@H](C(=O)N[C@@H](Cc1ccc(N)cc1)C(=O)NCC(=O)O)[C@@H](C)CC	4.72	–
CCOP(=O)(O)N[C@H](C(=O)N[C@@H](Cc1ccc(OCC(=O)N[C@@H](CCCCN)C(=O)O)cc1)C(=O)NCC(=O)O)[C@@H](C)CC	4.30	–
CCOP(=O)(O)N[C@H](C(=O)N[C@@H](Cc1ccc(OCC(=O)O)cc1)C(=O)NCC(=O)O)[C@@H](C)CC	4.49	–
CCOP(=O)(O)N[C@H](C(=O)NC(Cc1ccc(OCc2ccccc2)cc1)C(=O)NC)[C@@H](C)CC (some centres undefined)	4.74	–
CCOP(=O)(O)N[C@H](C(=O)N[C@@H](Cc1ccc(OCc2cc(Cl)cc(Cl)c2)cc1)C(=O)NCC(=O)O)[C@@H](C)CC	5.24	pKi (Interstitial collagenase [3]): 4.89
CCOP(=O)(O)N[C@@H](CC(C)C)C(=O)N[C@@H](C)C(=O)NCC(=O)O	3.85	–
CCOP(=O)(O)N[C@H](C(=O)N[C@@H](C)C(=O)NCC(=O)O)[C@@H](C)CC	3.89	pKi (Interstitial collagenase [3]): 3.83
CCOP(=O)(O)N[C@H](C(=O)N[C@@H](Cc1c[nH]c2ccccc12)C(=O)NCC(=O)O)[C@@H](C)CC	4.89	–
CCOP(=O)(O)N[C@H](C(=O)N[C@@H](C)C(=O)NCC(=O)N[C@@H](CCC(N)=O)C(=O)N[C@@H](CCCNC(=N)N)C(=O)NCC(=O)O)[C@@H](C)CC (X1-AGQRG-OH)	3.34	–
CCOP(=O)(O)N[C@H](C(=O)NC(Cc1ccc(OC)cc1)C(=O)NC)[C@@H](C)CC (some centres undefined)	4.51	–
CCOP(=O)(O)N[C@H](C(=O)N[C@@H](CC(C)C)C(=O)NCC(=O)O)[C@@H](C)CC	4.31	–
CCOP(=O)(O)N[C@H](C(=O)N[C@@H](Cc1ccc(OCC(=O)NCc2ccccc2)cc1)C(=O)NCC(=O)O)[C@@H](C)CC	4.80	–
CCOP(=O)(O)N[C@H](C(=O)NC(Cc1c[nH]c2ccccc12)C(=O)NC)[C@@H](C)CC (some centres undefined)	5.82	pKi (Collagenase ColA): < 2.30; pKi (Interstitial collagenase [3]): 6.05
CCOP(=O)(O)N[C@H](C(=O)N[C@@H](Cc1ccc(OCC(=O)N(Cc2ccccc2)Cc2ccccc2)cc1)C(=O)NCC(=O)O)[C@@H](C)CC	4.57	–
CCOP(=O)(O)N[C@H](C(=O)N[C@@H](C)C(=O)NCC(=O)N[C@@H](CC(C)C)C(=O)O)[C@@H](C)CC	3.62	–
